Assay results from patent US11440939B2, “Anticancer peptides” (IDP DISCOVERY PHARMA, S.L., priority 2017, dated 2022).
Numbered stars: 1 amine (or outer) side, 2 acyl side, 3 side chain; on linkers, the order of the positions; unused ones are H or OH. Bridge positions count the residues as written; N and C are the ends. Square brackets hold non-standard residues; d marks the D form. Peptide text beside a SMILES is read from it. ξ: configuration not given here. ξαMeNle(6-ylidene) = CC(CCCC=[*:3])(N[*:1])C(=O)[*:2]; X1 = CC(CCCCCCC=[*:3])(N[*:1])C(=O)[*:2]

Assays:
Type in all cases: cell-based
NCI-H82 = conditions: 72 h
Experimental: NCI-H82, epithelial (small cell lung cancer, SCLC), ATCC-CRL-5811;
(§1) Cell line MCF-7 was cultured in incubator under CO2 (6%) at 37° C. in DMEM high glucose (Dulbecco's Modified Eagle Solution, Gibco-BRL 31966-21) medium with 10% fetal bovine serum inactivated (FBS) (Gibco-BRL 10106-169). Cell lines HL-60, NCI-H524, NCI-H526, NCI-H69, NCI-H82, NCI-H187 and H5B were cultured in an incubator at 37° C. in RPMI-1640 (Sigma R8758) medium with 10% of fetal bovine serum inactivated (FBS) and 2 mM glutamine (Sigma G7513). Cell line NCI-H510A was cultured in incubator in F12K medium with 10% of fetal bovine serum inactivated (FBS). Cell line GBM-18 and GBM-27 were cultured in incubator under CO2 (6%) at 37° C. in complete medium (Neurobasal+B27+Glutamax+Growth factors).
(§2) During the amplification step and the assays, adherent cells were rinsed with DPBS (Dulbecco's Phosphate Buffered Saline, Sigma D1283) three times and afterward treated for 5 minutes with trypsin ([…]) (Gibco-BRL, 15400054) in solution of DPBS at 37° C., and, once detached, transferred in the culturing medium. No-adherent cells were centrifuged and transferred in the culturing medium. Cells were counted in a Neubauer chamber after labelling with Tripan-Blue.
(§3) MCF-7, NCI-H187, NCI-H69, NCI-H526 and H5B cells were seeded at a density of 5000 cells/well; NCI-H524 and NCI-H82 were seeded at a density of 2500 cells/well; HL-60 and NCI-H510A at 10000 cells/well in 100 μl of medium in 96 well plates. After 24 h, the compounds to be tested were added to calculate the dose/response curve at the starting concentration of 100 μM with serial dilutions (1:1). Controls were the untreated cells. Each experiment was performed in triplicate.
(§4) Cells were incubated during 72 h in incubator under CO2 atmosphere at 37° C. Cell viability was measured by means of MTT (3-(4,5-dimethylthiazol-2-yl)-2,5-diphenyltetrazolium bromide) assay, Alamar Blue® (Biosource DAL1100) and Hexosaminidase activity test, consecutively, following manufacturer instructions.
(§5) MTT: 1. Stock solution of MTT (475989 Calbiochem) was 5 mg/ml in PBS 1×. As negative control (experiment noise) 3 wells were treated with 20 μl/well of a solution of SDS 10% in H2O. The same control was used for Alamar Blue/Hexosaminidase. 10 μl/well of MTT solution were added and the plate was incubated for 3-4 hr. The medium was discarded and 100 μl of extracting buffer (PBS 1×, 15% SDS, 50% […] N,N-Dimethylformamide, pH 4,7) were added to each well. Plates were incubated for 16 h at room temperature under orbital shaking. Absorbance at 570 nm was finally measured.
(§6) Alamar Blue: 10 μl Alamar Blue solution was added to each well and the plates were incubated for […] in the incubator. Fluorescence ratio at 535/590 (excitation/emission) was measured in Cytofluor (Millipore) fluorimeter. Blank control was determined by lysis of untreated cells with con 2% of Triton X100, right before adding Alamar Blue solution.
(§7) Hexosaminidase activity test: after Alamar Blue lecture, medium was discarded and plates were rinsed once with PBS. 60 μl hexosaminidase substrate (p-nitrophenol-N-acetyl-beta-D-glucosamide 7.5 mM [Sigma N-9376], sodium citrate 0.1 M, pH 5.0, 0.25% Triton X-100) was added to each well and the plates were incubated at 37° C. for 2-5 h, according to the cell type (hexosaminidase activity changes according to the cell type). […] Blank control was the same as described before.
(§8) Data analysis was performed calculating the percentage of cell viability normalized vs. the values of negative control, which was considered equal to 100%. The dose/response curve was fitted through the sigmoidal equation dose-response (variable slope) and the EC50 values were calculated as follow: Y=Bottom+(Top−Bottom)/(1+10^{[(Log EC50−X)*HillSlope]},

NCI-H187 = conditions: 72 h
Experimental: NCI-H187, epithelial (small cell lung cancer, SCLC), ATCC-CRL-5804;
as §1, §2, §3, §4, §5, §6, §7, §8

NCI-H510A = conditions: 72 h
Experimental: NCI-510A, epithelial (small cell lung cancer, SCLC), ATCC-HBT-124; and Hepatocytes (normal liver), from a donor was provided by Foundation DTI-Donation & Transplantation Institute from surgical wastes and from organs not suitable for transplantation
as §1, §2, §3, §4, §5, §6, §7, §8

HL-60 = test system: HL-60
Experimental: HL-60, promyeloblast (acute myelocytic leukemia, AML), ECACC: 98070106;
as §1, with “Cell line GBM-18 and GBM-27 were cultured in incubator under CO2 (6%) at 37° C. in complete medium (Neurobasal+B27+Glutamax+Growth factors).” left out
as §2, with “No-adherent cells were centrifuged and transferred in the culturing medium.” left out, “Tripan-Blue. […]” for “Tripan-Blue.”
as §4
MTT: 1. […] Absorbance at 570 nm was finally measured. […]

GBM-27 = test system: GBM-27
Experimental: GMB-27, epithelial (glioblastoma, GMB), from surgical specimens from patients;
as §1, with “Cell line GBM-18 and GBM-27 were cultured in incubator under CO2 (6%) at 37° C. in complete medium (Neurobasal+B27+Glutamax+Growth factors).” left out
as §2, with “No-adherent cells were centrifuged and transferred in the culturing medium.” left out
as §4, with “instructions. […]” for “instructions.”

Compound `CC(C)C[C@H](NC(=O)[C@H](CCCCN)NC(=O)[C@@H](NC(=O)[C@@H](N)CCCNC(=N)N)C(C)C)C(=O)N[C@H](C(=O)N[C@@H](CC(N)=O)C(=O)N[C@@H](CC(C)C)C(=O)NC1(C)CCCCCCC=CCCCC(C)(C(=O)N[C@H](C(=O)N2CCC[C@H]2C(N)=O)C(C)C)NC(=O)[C@H](CCC(=O)O)NC(=O)[C@H](CCCNC(=N)N)NC(=O)[C@H](CC(C)C)NC(=O)[C@H]([C@@H](C)O)NC(=O)[C@H](C)NC(=O)[C@H](Cc2ccccc2)NC1=O)C(C)C` (some centres unmarked) [H14] (H-RVKLVNL[X1]FATLRE[ξαMeNle(6-ylidene)]VP-NH2; staple 8-15; N-terminus and C-terminus assumed) has an EC50 (NCI-H82) of about 12.5 µM, an EC50 (NCI-H187) of about 10 µM and an EC50 (NCI-H510A) of about 12 µM. The EC50 (HL-60) was about 14 µM and the EC50 (GBM-27) was about 5 µM.
